# Reference: publication PMC9658316, “Discovery of Mitochondrial Complex I Inhibitors as Anticancer and Radiosensitizer Drugs Based on Compensatory Stimulation of Lactate Release” (Cancers, 2022)
# What was measured:
# intact CT26 cancer cells = assay: Seahorse basal OCR and ECAR in intact (non-permeabilized) CT26 cancer cells; format: cell-based, mouse; settings: for restoration of OCR / OXPHOS activity in cells exposed to aa compound: intact CT26 cells exposed to aa
# Experimental: (§1) L-lactate concentration was measured in a semi-automated manner using CMA Microdialysis AB enzymatic assay and a CMA 600 analyzer (Aurora Borealis, Schoonebeek, The Netherlands) as previously described. Briefly, cells (2 × 10^5 cells per well; 3 wells/condition) were seeded in 12-well plates with 2 mL of their routine culture medium. After 24 h, medium was replaced by 500 µL of DMEM containing 10 mmol/L D-glucose and supplemented with 2 mmol/L L-glutamine and 10% dialyzed FBS (Sigma-Aldrich), in the presence of the compounds or vehicle (DMSO). The initial concentration of L-lactate in the experimental medium was also assessed by including control wells containing only cell culture medium (no cells) on each plate. After incubation for 24 h, extracellular media were collected and deproteinized by centrifugation (15 min, 10,000 rpm, 4 °C) in 10 kDa cut-off filter tubes (VWR, Avantor, Leuven, Belgium). Differences in L-lactate concentrations between control and treated cells were calculated and normalized by the protein content in each well and expressed in µmol/h/mg protein. Oxygen-consumption rate (OCR) was measured using the Seahorse XF96 plate reader as previously reported. Briefly, cells (2 × 10^4 cells per well) were first permeabilized with 1 nM Seahorse XF Plasma Membrane Permeabilizer (#102504-100; Agilent, Machelen, Belgium) and respiration was stimulated by adding 10 mM pyruvate, 5 mM malate, and 2 mM ADP. After baseline OCR determination, compounds were added (to inhibit complex I) followed by 10 mM succinate to fuel complex II and rescue the electron transport chain. In some experiments, the effects of selected hits on basal OCR were evaluated in intact cells (including in the presence of MCT1/2 inhibitor AR-C155858 [29] or methylpyruvate). OCR data were normalized according to protein content in each well.
# Since other lactate transporters could be involved, we also used methylpyruvate which can bypass the need for a mitochondrial carrier and mimic the result of lactate oxidation by a mitochondrial LDH or ensure the delivery of pyruvate into the mitochondria matrix. […] In the same experiments carried out on non-permeabilized cancer cells, the extent of basal OCR inhibition in response to 10 µM aa was similar to that observed with 100 nM IACS-010759 (−52 ± 5% and −45 ± 6%, respectively) and mirrored by an increase in extracellular acidification rate (ECAR) (+36 ± 11% and +29 ± 9%, respectively).
# mitochondrial complex I = mitochondrial complex I (Mus musculus, UniProt P03888+Q91WD5+Q9DC70); assay: Seahorse OCR in permeabilized CT26 cancer cells, mitochondrial complex I inhibition (Assay #2); format: cell-based; settings: for IC50: pyruvate/malate, tested at 1 and 10 µM, read-out: OCR inhib. (IC50); for significant inhibition of complex I: up to 10 µM
# Experimental: as §1
# (A–D). Graphs depict changes in O2 consumption rate (OCR) measured with the Seahorse technology on permeabilized CT26 cancer cells upon successive addition of pyruvate/malate, the indicated inhibitor and succinate. […] (E,F).
# [1] = test system: colorectal CT26 cancer cells; assay: Compound-induced L-lactate release (Assay #1), CT26; format: cell-based, mouse; settings: 10 µM; for [LAC] increase: 24 h exposure, L-lactate secretion above basal release; for L-lactate release compared with reference compound aa: 24 h
# Experimental: as §1
# Figure 3 Compound-induced L-lactate release (Assay #1). Culture medium was collected after 24 h exposure to the indicated compounds (10 µM) and the amount of extracellular L-lactate release was determined in a semi-automated manner; dose-dependent effects of complex I inhibitor IACS are shown on the right (shaded bars). Bar graph depicts the extent of L-lactate secretion above the basal release as determined in the absence of any compound (n = 3, ** p < 0.01 for increased L-lactate release vs. reference compound aa).
# CT26 colon cancer cells = assay: Growth inhibitory effects on cultured CT26 cells (Presto Blue); format: cell-based, mouse; settings: CT26 monolayers, 1 µM, 72 h
# Text: (§2) Mouse colorectal CT26 and breast 4T1 cancer cells as well as human cervix cancer SiHa and breast MDA-MD-231 cancer cells were acquired from ATCC where they are regularly authenticated by short tandem repeat profiling. They were stored according to the supplier’s instructions and used within 6 months after resuscitation of frozen aliquots. Cancer cells were maintained in DMEM (Life Technologies, ThermoFischer scientific, Merebelke, Belgium) supplemented with 10% heat-inactivated FBS. All cell lines were tested for mycoplasma contamination with the MycoAlert™ Mycoplasma Detection kit (#LT07-318; Lonza, Verviers, Belgium) before being used. Cell integrity was determined by the Trypan Blue exclusion method (using Bürker chambers) while cell growth was assessed by using the Presto Blue reagent (Life Technologies) according to manufacturer’s instructions.
# (§3) Figure 4 Mitochondrial complex I activity inhibition (Assay #2). (A–D). Graphs depict changes in O2 consumption rate (OCR) measured with the Seahorse technology on permeabilized CT26 cancer cells upon successive addition of pyruvate/malate, the indicated inhibitor and succinate. OXPHOS I inhibitor IACS was used as a control in the experiments testing reference compound aa (A), and compound aa (10µM) was used as reference for testing au, ah and at derivatives (B–D) (n = 6 per compound). (E,F). Growth inhibitory effects of cultured CT26 (E) and 4T1 […] cancer cells exposed to 100 nM IACS or 1 µM aa, ag, aj and au compounds for 72 h; data represent the reduced extent (expressed as %) of cell viability (determined with Presto Blue) when compared with vehicle conditions (n = 3).
# breast 4T1 cancer cells = assay: Growth inhibitory effects on cultured 4T1 cells (Presto Blue); format: cell-based, mouse; settings: 4T1 monolayers, 1 µM, 72 h, compared with CT26
# Text: as §2, §3
# [2] = test system: human cervix Siha cancer cells; assay: Growth inhibitory effects on human cancer cells (Presto Blue), SiHa vs MDA-MB-231; format: cell-based; settings: 1 µM
# Text: as §2
# Suppl. Figure S3. Growth inhibitory effects of hit compounds on human cancer cells. MDA-M B-231 (A) and Siha (B) cancer cells were exposed to 100 nM IACS or 1 µM aa, ag, aj and au compounds; data represent the reduced extent (expressed as %) of cell viability (determined with Presto Blue) when compared with vehicle conditions (n=3).
# (also on this page, place not known: 60Growth inhibitory effects (%) MDA-MB-231 aa au 60Growth inhibitory effects (%))
# 3D tumor CT26 spheroids = assay: Inhibition of 3D tumor spheroid growth (Assay #3); format: cell-based, mouse; settings: CT26 spheroids, day 10
# Experimental: Spheroids were prepared by seeding 1500 cells/well in Ultra-Low Attachment 96-well plate (Corning, Merck, Hoeilaart, Belgium) in DMEM supplemented with 10% heat-inactivated FBS. Inhibitors were added on day 4 (mean diameter of spheroids: 300 µm) and renewed every 3 days. Spheroid growth was monitored using live-cell phase contrast microscope (Axio Observer, Zeiss, Zaventem, Belgium); spheroid area, density and morphology were measured using ImageJ software. Confocal fluorescence microscopy (LSM510, Zeiss, Zaventem, Belgium) was used for detecting pimonidazole immunostaining as previously reported. Spheroids from a same experiment were imaged with the same gain and exposure settings. In some experiments, OXPHOSi treatment was combined with irradiation using a ^137Cs γ-irradiator (IBL-637; CIS-BioInternational, Saclay, France) as previously described.
# Figure 5 Inhibition of 3D tumor spheroid growth (Assay #3). […] Drug exposure without (A) or with irradiation (B) was associated with a significant reduction in spheroid sizes vs. untreated spheroids (not shown).
SMILES,[LAC] increase [1] [µmol/h/mg],IC50 (mitochondrial complex I) [µM],further results
Cc1n[nH]c(C)c1Cc1sc2c(c1C(=O)N1C[C@H](O)CO1)c(=O)n(C)c(=O)n2CC(C)C [AR-C155858],–,–,restoration of OCR / OXPHOS activity in cells exposed to aa compound (intact CT26 cancer cells): failed to restore OCR
"Cc1nc(-c2nc(-c3ccc(OC(F)(F)F)cc3)no2)nn1Cc1cccc(N2CCC(S(C)(=O)=O)CC2)c1 [IACS-010759, reference compound]",–,–,"concentration giving the same extent of maximal OCR inhibition (mitochondrial complex I): 100 nM; increase in extracellular acidification rate (ECAR) (intact CT26 cancer cells; non-permeabilized CT26 cells, 100 nM): +29 ± 9%"
"COC(=O)C(C)=O [Methylpyruvate, methylpyruvate]",–,–,restoration of OCR / OXPHOS activity in cells exposed to aa compound (intact CT26 cancer cells): failed to restore OXPHOS activity
NC(=O)c1nnn(Cc2cc(Cl)c(C(=O)c3ccccc3)c(Cl)c2)c1N [ab],~2,~10,–
Cc1ccc(C(=O)c2c(Cl)cc(Cn3nnc(C(N)=O)c3N)cc2Cl)cc1 [ac],~2,~10,–
Cc1cccc(C(=O)c2c(Cl)cc(Cn3nnc(C(N)=O)c3N)cc2Cl)c1 [ad],~2,~10,–
COc1ccc(C(=O)c2c(Cl)cc(Cn3nnc(C(N)=O)c3N)cc2Cl)cc1 [ae],~2,~10,–
NC(=O)c1nnn(Cc2cc(Cl)c(C(=O)c3ccc(OC(F)(F)F)cc3)c(Cl)c2)c1N [af],~2,~10,–
NC(=O)c1nnn(Cc2cc(Cl)c(C(=O)c3ccc(C(F)(F)F)cc3)c(Cl)c2)c1N [ag],~4,–,L-lactate release compared with reference compound aa [1]: more potent inducers of L-lactate release; cytotoxic / growth inhibitory effects (CT26 colon cancer cells): very limited effects; growth inhibitory activity (breast 4T1 cancer cells): more significant growth inhibitory activity; antiproliferative effects in Siha compared with MDA-MB-231 cells [2]: Larger antiproliferative effects; spheroid growth inhibition compared with reference compound aa (3D tumor CT26 spheroids): inhibited spheroid growth to the same extent as compound aa
NC(=O)c1nnn(Cc2cc(Cl)c(C(=O)c3ccc4ccccc4c3)c(Cl)c2)c1N [ah],~2,~10,pattern of OCR inhibition activity relative to aa (mitochondrial complex I; 1 and 10 µM): hypoactive
NC(=O)c1nnn(Cc2cc(Cl)c(CN3CCOCC3)c(Cl)c2)c1N [ai],~2,> 10,significant inhibition of complex I (mitochondrial complex I): did not show significant inhibition of complex I
C=CCNC(=O)c1nnn(Cc2cc(Cl)c(C(=O)c3ccc(C(F)(F)F)cc3)c(Cl)c2)c1N [ak],~0,> 10,–
NC(=O)c1nnn(Cc2cc(F)c(C(=O)c3ccc(Cl)cc3)c(F)c2)c1N [an],~4,~10,L-lactate release compared with reference compound aa [1]: more potent inducers of L-lactate release; spheroid growth inhibition compared with reference compound aa (3D tumor CT26 spheroids): inhibited spheroid growth to the same extent as compound aa
CC(=O)c1c(Cl)cc(Cn2nnc(C(N)=O)c2N)cc1Cl [ao],~2,> 10,significant inhibition of complex I (mitochondrial complex I): did not show significant inhibition of complex I
Cc1cc(C)cc(Cn2nnc(C(N)=O)c2N)c1 [ap],~0,> 10,–
NC(=O)c1nnn(Cc2cc(Cl)cc(Cl)c2)c1N [aq],~0,> 10,–
O=C(O)c1cn(Cc2cc(Cl)c(C(=O)c3ccc(Cl)cc3)c(Cl)c2)nn1 [ar],~0,> 10,–
NC(=O)c1cn(Cc2cc(Cl)c(C(=O)c3ccc(Cl)cc3)c(Cl)c2)nn1 [as],~2,> 10,significant inhibition of complex I (mitochondrial complex I): did not show significant inhibition of complex I
O=C(c1ccc(Cl)cc1)c1c(Cl)cc(Cn2cc(CO)nn2)cc1Cl [av],~0,> 10,–
NC(=O)c1cn(Cc2cc(F)c(C(=O)c3ccc(Cl)cc3)c(F)c2)nn1 [aw],~0,> 10,–
Nc1c(C(=O)O)nnn1Cc1ccc(NC(=O)c2ccc(Cl)cc2)cc1 [ba],~0,> 10,–
Nc1c(C(=O)O)nnn1Cc1cccc(NC(=O)c2ccc(OC(F)(F)F)cc2)c1 [bb],~0,> 10,–
CC(C)(C)OC(=O)N1CCC(Nc2cccc(Cn3nnc(C(=O)O)c3N)c2)CC1 [bc],~0,> 10,–
Nc1c(C(=O)O)nnn1Cc1cccc(N2CCOCC2)c1 [bd],~0,> 10,–
Nc1c(C(=O)O)nnn1Cc1ccccc1NC(=O)c1ccc(OC(F)(F)F)cc1 [be],~0,> 10,–
Nc1c(C(=O)O)nnn1Cc1ccccc1N1CCSCC1 [bf],~0,> 10,–
NC(=O)c1nnn(Cc2cc(Cl)c(Cc3ccc(C(F)(F)F)cc3)c(Cl)c2)c1N [compound al],~0,> 10,–
